The text below walks through data of patent US4705805A, “Antithrombotic agent” (priority 1978, dated 1987).

For orientation: inhibition means the relative decrease from the control value, in per cent.

The test system of assay [1] is mice, death by ADP injection. As to the kind of experiment: prevention of death of mice by ADP addition (in vivo), oral administration. On the procedure:
In this example, prevention of death of mice by ADP addition (in vivo) is tested. It is shown that intravenous administration of a great amount of ADP to mice causes aggregated blood platelets to be captured in the pulmonary capillaries so that the mice die of respiratory distress.
The test is carried out according to Roba's method. [Eur. J. Pharmacol. 37, 265-274 (1976)]. Specifically, CMC solution (0.3%) and CMC suspension containing the test compound and control compounds are orally administered to mice in a ratio of 0.1 ml/10 g (body weight). After one hour, an aqueous solution of ADP (60 mg/ml) is injected into the tail vein in a volume of 0.1 ml/10 g (body weight) every 10 seconds and the mortality is calculated.

For assay [2], the system named is rabbit blood platelets (platelet rich plasma), collagen-induced aggregation. The assay can be described thus: inhibition of platelet aggregation in rabbit platelet rich plasma (in vitro), induced by collagen. In kind it is cell-based. Particulars: Oryctolagus cuniculus, Platelet, read-out: percentage of inhibition, collagen. The gist of the method: (§1)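 PRP from citrated rabbit carotid blood (1,000 rpm, 15 min) preincubated 1 min with test compound in saline before ADP or collagen is added. Aggregation followed by light transmission in an aggregometer; % inhibition derived from maximum aggregation with sample versus saline.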

The subject of assay [3] is rabbit blood platelets (platelet rich plasma), ADP-induced aggregation. As to the kind of experiment: inhibition of platelet aggregation in rabbit platelet rich plasma (in vitro), induced by ADP. It counts as cell-based. Particulars: Oryctolagus cuniculus, Platelet, read-out: percentage of inhibition, ADP. The essentials:
as §1

Setting [4] is: oral, 100 mg/Kg, ADP i.v. after one hour.

Regarding `COc1ccc(Cc2nccc3cc(OC)c(OC)cc23)cc1OC` [papaverine, reference compound], the “effect in reducing mortality (ADP)” value in assay [1] (in words, oral or intravenous administration, Table 3) is recorded as “ineffective”. In assay [1] (setting [4]), the Mortality came out at 60% and the “Score (mortality)” value is 6/10. Also, in assay [2], the inhibition at 30 µg/mL came out at 34% and the inhibition at 100 µg/mL was determined as 100%. Further, in assay [3], the inhibition at 30 µg/mL is 14% and the inhibition at 100 µg/mL turned out to be 99%.
